Experimental data from US20250098679A1, “HERBICIDAL PYRIDONE DERIVATIVES” (SYNGENTA CROP PROTECTION AG, priority 2021, published 2025).

Experiments:
Format in all cases: in vivo
Details in all cases: evaluated after 13 days
[1] = test system: Ipomoea hederacea (IPOHE); assay: Post-emergence Test, Ipomoea hederacea (IPOHE); set-up: key to percentage damage caused to the plant, IPOHE (five-point scale): 5=81-100%, 4=61-80%, 3=41-60%, 2=21-40%, 1=0-20% damage
Procedure, shortened: (§1)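 Percent plant damage was rated 13 days post-application on a 1–5 scale (1=0-20%, 5=81-100%). Application used an aqueous acetone (50:50)/0.5% Tween 20 spray, normally 1000 g/ha, with controlled glasshouse conditions (24/16 °C, 14 h light, 65% humidity).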

[2] = test system: Zea mays (ZEAMX); assay: Pre-emergence Test, Zea mays (ZEAMX)
[3] = test system: Amaranthus palmeri (AMAPA); assay: Post-emergence Test, Amaranthus palmeri (AMAPA); set-up: key: 5=81-100%, 4=61-80%, 3=41-60%, 2=21-40%, 1=0-20% damage
Procedure, shortened: as §1

[4] = test system: Setaria faberi (SETFA); assay: Pre-emergence Test, Setaria faberi (SETFA)
[5] = test system: Amaranthus palmeri (AMAPA); assay: Pre-emergence Test, Amaranthus palmeri (AMAPA)
[6] = test system: Setaria faberi (SETFA); assay: Post-emergence Test, Setaria faberi (SETFA); set-up: key to percentage damage caused to the plant, SETFA (five-point scale): 5=81-100%, 4=61-80%, 3=41-60%, 2=21-40%, 1=0-20% damage
Procedure, shortened: as §1

[7] = test system: Ipomoea hederacea (IPOHE); assay: Pre-emergence Test, Ipomoea hederacea (IPOHE)
[8] = test system: Amaranthus retoflexus (AMARE); assay: Post-emergence Test, Amaranthus retoflexus (AMARE); set-up: key to percentage damage caused to the plant, AMARE (five-point scale): 5=81-100%, 4=61-80%, 3=41-60%, 2=21-40%, 1=0-20% damage
Procedure, shortened: as §1

[9] = test system: Zea mays (ZEAMX); assay: Post-emergence Test, Zea mays (ZEAMX); set-up: key to percentage damage caused to the plant, ZEAMX (five-point scale): 5=81-100%, 4=61-80%, 3=41-60%, 2=21-40%, 1=0-20% damage
Procedure, shortened: as §1

[10] = test system: Amaranthus retoflexus (AMARE); assay: Pre-emergence Test, Amaranthus retoflexus (AMARE)
[11] = test system: Echinochloa crus-galli (ECHCG); assay: Pre-emergence Test, Echinochloa crus-galli (ECHCG)
[12] = test system: Echinochloa crus-galli (ECHCG); assay: Post-emergence Test, Echinochloa crus-galli (ECHCG); set-up: key to percentage damage caused to the plant, ECHCG (five-point scale): 5=81-100%, 4=61-80%, 3=41-60%, 2=21-40%, 1=0-20% damage
Procedure, shortened: as §1

Compound	percentage damage caused to the plant, IPOHE (five-point scale) ([1]; 250 g/Ha)	Pre-emergence Test ZEAMX, percentage damage caused to the plant (five-point scale) ([2]; 250 g/Ha (*))	percentage damage caused to the plant, AMAPA (five-point scale) ([3]; 250 g/Ha)	Pre-emergence Test SETFA, percentage damage caused to the plant (five-point scale) ([4]; 250 g/Ha (*))	Pre-emergence Test AMAPA, percentage damage caused to the plant (five-point scale) ([5]; 250 g/Ha (*))	percentage damage caused to the plant, SETFA (five-point scale) ([6]; 250 g/Ha)	Pre-emergence Test IPOHE, percentage damage caused to the plant (five-point scale) ([7]; 250 g/Ha (*))	percentage damage caused to the plant, AMARE (five-point scale) ([8]; 250 g/Ha)	percentage damage caused to the plant, ZEAMX (five-point scale) ([9]; 250 g/Ha)	Pre-emergence Test AMARE, percentage damage caused to the plant (five-point scale) ([10]; 250 g/Ha (*))	Pre-emergence Test ECHCG, percentage damage caused to the plant (five-point scale) ([11]; 250 g/Ha (*))	percentage damage caused to the plant, ECHCG (five-point scale) ([12]; 250 g/Ha)	percentage damage caused to the plant, IPOHE (five-point scale) ([1]; 1000 g/ha)	Pre-emergence Test ZEAMX, percentage damage caused to the plant (five-point scale) ([2]; 1000 g/ha)	percentage damage caused to the plant, AMAPA (five-point scale) ([3]; 1000 g/ha)	Pre-emergence Test SETFA, percentage damage caused to the plant (five-point scale) ([4]; 1000 g/ha)	Pre-emergence Test AMAPA, percentage damage caused to the plant (five-point scale) ([5]; 1000 g/ha)	percentage damage caused to the plant, SETFA (five-point scale) ([6]; 1000 g/ha)	Pre-emergence Test IPOHE, percentage damage caused to the plant (five-point scale) ([7]; 1000 g/ha)	percentage damage caused to the plant, AMARE (five-point scale) ([8]; 1000 g/ha)	other results
CCn1c(Cn2nccc2OC(F)F)cc(=O)c(C(=O)O)c1-c1ccc(Cl)c(Cl)c1 [Compound 85, 2-(3,4-dichlorophenyl)-6-[[5-(difluoromethoxy)pyrazol-1-yl]methyl]-1-ethyl-4-oxo-pyridine-3-carboxylic acid]	4 (4=61-80%)	0	0	3 (3=41-60%)	0	4 (4=61-80%)	1 (1=0-20%)	0	0	0	2 (2=21-40%)	2 (2=21-40%)									
CCn1c(Cn2nc(Cl)cc2C(F)(F)F)cc(=O)c(C(=O)O)c1-c1ccc(Cl)c(Cl)c1 [Compound 104, 6-[[3-chloro-5-(trifluoromethyl)pyrazol-1-yl]methyl]-2-(3,4-dichlorophenyl)-1-ethyl-4-oxo-pyridine-3-carboxylic acid]	4 (4=61-80%)	2 (2=21-40%)	3 (3=41-60%)	5 (5=81-100%)	1 (1=0-20%)	4 (4=61-80%)	1 (1=0-20%)	3 (3=41-60%)	4 (4=61-80%)	1 (1=0-20%)	5 (5=81-100%)	4 (4=61-80%)	3 (3=41-60%)	5 (5=81-100%)	4 (4=61-80%)	5 (5=81-100%)	1 (1=0-20%)	4 (4=61-80%)	4 (4=61-80%)	4 (4=61-80%)	percentage damage caused to the plant, ZEAMX (five-point scale) ([9]; 1000 g/ha): 4 (4=61-80%); Pre-emergence Test AMARE, percentage damage caused to the plant (five-point scale) ([10]; 1000 g/ha): 1 (1=0-20%); Pre-emergence Test ECHCG, percentage damage caused to the plant (five-point scale) ([11]; 1000 g/ha): 5 (5=81-100%); percentage damage caused to the plant, ECHCG (five-point scale) ([12]; 1000 g/ha): 4 (4=61-80%)
CCn1c(Cn2cc(Cl)cn2)cc(=O)c(C(=O)O)c1-c1ccc(Cl)c(Cl)c1 [Compound 14, 6-[(4-chloropyrazol-1-yl)methyl]-2-(3,4-dichlorophenyl)-1-ethyl-4-oxo-pyridine-3-carboxylic acid]	3 (3=41-60%)	0	1 (1=0-20%)	3 (3=41-60%)	0	2 (2=21-40%)	0	1 (1=0-20%)	1 (1=0-20%)	0	4 (4=61-80%)	1 (1=0-20%)	3 (3=41-60%)	0	3 (3=41-60%)	5 (5=81-100%)	1 (1=0-20%)	4 (4=61-80%)	0	1 (1=0-20%)	percentage damage caused to the plant, ZEAMX (five-point scale) ([9]; 1000 g/ha): 1 (1=0-20%); Pre-emergence Test AMARE, percentage damage caused to the plant (five-point scale) ([10]; 1000 g/ha): 1 (1=0-20%); Pre-emergence Test ECHCG, percentage damage caused to the plant (five-point scale) ([11]; 1000 g/ha): 5 (5=81-100%); percentage damage caused to the plant, ECHCG (five-point scale) ([12]; 1000 g/ha): 4 (4=61-80%)
CCn1c(Cn2ncc3cnc(Cl)cc32)cc(=O)c(C(=O)O)c1-c1ccc(Cl)c(Cl)c1 [Compound 75, 6-[(6-chloropyrazolo[4,3-c]pyridin-1-yl)methyl]-2-(3,4-dichlorophenyl)-1-ethyl-4-oxo-pyridine-3-carboxylic acid]	0	0	1 (1=0-20%)	1 (1=0-20%)	1 (1=0-20%)	0	0	1 (1=0-20%)	0	1 (1=0-20%)	1 (1=0-20%)	1 (1=0-20%)									
CCn1c(Cn2ccc(I)n2)cc(=O)c(C(=O)O)c1-c1ccc(Cl)c(Cl)c1 [Compound 78, 2-(3,4-dichlorophenyl)-1-ethyl-6-[(3-iodopyrazol-1-yl)methyl]-4-oxo-pyridine-3-carboxylic acid]	4 (4=61-80%)	4 (4=61-80%)	2 (2=21-40%)	5 (5=81-100%)	3 (3=41-60%)	4 (4=61-80%)	4 (4=61-80%)	1 (1=0-20%)	1 (1=0-20%)	2 (2=21-40%)	5 (5=81-100%)	3 (3=41-60%)	4 (4=61-80%)	3 (3=41-60%)	2 (2=21-40%)	5 (5=81-100%)	2 (2=21-40%)	4 (4=61-80%)	4 (4=61-80%)	3 (3=41-60%)	percentage damage caused to the plant, ZEAMX (five-point scale) ([9]; 1000 g/ha): 3 (3=41-60%); Pre-emergence Test AMARE, percentage damage caused to the plant (five-point scale) ([10]; 1000 g/ha): 2 (2=21-40%); Pre-emergence Test ECHCG, percentage damage caused to the plant (five-point scale) ([11]; 1000 g/ha): 5 (5=81-100%); percentage damage caused to the plant, ECHCG (five-point scale) ([12]; 1000 g/ha): 4 (4=61-80%)
